Laboratory results from patent US20080096894A1, “Anti-Bacterial Compounds” (ASTON UNIVERSITY, priority 2005, published 2008).
≈ marks a conversion by molar mass, not a printed value. Like-named read-outs stand apart in the source and are kept apart here.

Tests used:
S. aureus = assay: MIC, agar dilution, multipoint inoculator; assay type: cell-based, Staphylococcus aureus; conditions: Staphylococcus aureus, upper value of MIC reading, read-out: MIC
How it was run: (§1)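 Read-out is the MIC by agar dilution. Plates contain Mueller Hinton agar; bacteria are applied via multipoint inoculator, 10^4 CFU per spot.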

[1] = tested on: human mononuclear leucocytes (MNL, white blood cells); assay: direct leucocyte toxicity, tryptan blue exclusion, 18 hours; assay type: cell-based
Description: The in vitro assay used human mononuclear leucocytes (MNL, white blood cells) which were incubated with the test compound for 18 hours and cell death determined by tryptan blue exclusion (tryptan blue is a dye, which stains dead cells, whilst living cells extrude it).
The toxicity of 4PYcq and the aldehyde cq and pyridine-4-carboxamidrazone precursors were assessed using the same in vitro assay with human mononuclear leucocytes as that described above. The toxicity of related compounds, 2-hydroxybenzylidene-pyridine-2-carboxamidrazone 4PYbw and benzylidenepyridine-2-carboxamidrazone 4PYaa were also examined.

Micrococcus roseus [2] = assay: MIC, agar dilution, multipoint inoculator; assay type: cell-based; conditions: Kocuria rosea
Description: (§2) This activity was measured using a multipoint inoculator method as follows. The MIC for each compound was measured using an agar dilution method (Onda, H., et al., Int. J. Antimicrob. Agents. 18, 263 (2001)) (Mueller Hinton agar) by means of a multipoint inoculator delivering 10^4 colony forming units per spot.
(§3) 4Pycq was also tested against the following bacteria, using the multipoint inoculator method.

Bacillus megarerium [3] = assay: MIC, agar dilution, multipoint inoculator; assay type: cell-based
Description: as §2, §3

Bacillus cereus [4] = assay: MIC, agar dilution, multipoint inoculator; assay type: cell-based
Description: as §2, §3

Bacillus polymyxa = assay: MIC, agar dilution, multipoint inoculator; assay type: cell-based; conditions: Paenibacillus polymyxa
Description: as §2, §3

E. faecium = assay: MIC, agar dilution, multipoint inoculator; assay type: cell-based, Enterococcus faecium; conditions: Enterococcus faecium, upper value of MIC reading, read-out: MIC
How it was run: as §1

MRSA = assay: MIC, agar dilution, multipoint inoculator; assay type: cell-based, methicillin-resistant Staphylococcus aureus; conditions: Staphylococcus aureus
How it was run: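 Agar dilution MIC on Mueller Hinton agar, multipoint inoculator delivering 10^4 colony forming units per spot. MRSA values are ranges across ten clinical MRSA strains; S. aureus NCTC 6571 as reference strain.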

Micrococcus roseus [5] = assay: MIC, doubling dilution in 96-well microtitre plate; assay type: cell-based
Description: (§4) The compound was tested as follows. […] The wells were inoculated with organism ([…] of medium containing 10^6 cfu/mL) and the plates were incubated at 37° C. overnight. Where growth of organism occurred this was observed as a small button when viewed from underneath the plate. The MIC was determined as the lowest concentration inhibiting growth.

[6] = tested on: Klebsiella pneumoniae ATCC 33495; assay: MIC, doubling dilution in 96-well microtitre plate; assay type: cell-based
Description: as §4

Micrococcus luteus = assay: MIC, doubling dilution in 96-well microtitre plate; assay type: cell-based
Description: as §4

Moraxella catarrhalis = assay: MIC, doubling dilution in 96-well microtitre plate; assay type: cell-based
Description: as §4

Bacillus megarerium [7] = assay: MIC, doubling dilution in 96-well microtitre plate; assay type: cell-based
Description: as §4

Salmonella arizonae = assay: MIC, doubling dilution in 96-well microtitre plate; assay type: cell-based
Description: as §4

Bacillus subtilis = assay: MIC, doubling dilution in 96-well microtitre plate; assay type: cell-based
Description: as §4

[8] = tested on: Escherichia coli olli-blue; assay: MIC, doubling dilution in 96-well microtitre plate; assay type: cell-based
Description: as §4

Hafnia alvei = assay: MIC, doubling dilution in 96-well microtitre plate; assay type: cell-based
Description: as §4

Enterococcus faecium = assay: MIC, doubling dilution in 96-well microtitre plate; assay type: cell-based; conditions: Enterococcus faecium ATCC 10541
Description: as §4

Salmonella enteriditis = assay: MIC, doubling dilution in 96-well microtitre plate; assay type: cell-based
Description: as §4

[9] = tested on: Enterococcus faecalis NCTC 5957; assay: MIC, doubling dilution in 96-well microtitre plate; assay type: cell-based
Description: as §4

Salmonella banana = assay: MIC, doubling dilution in 96-well microtitre plate; assay type: cell-based
Description: as §4

[10] = tested on: Citrobacter diversus 2046E; assay: MIC, doubling dilution in 96-well microtitre plate; assay type: cell-based
Description: as §4

[11] = tested on: Enterobacter cloacae ATCC 13047; assay: MIC, doubling dilution in 96-well microtitre plate; assay type: cell-based
Description: as §4

[12] = tested on: Pseudomonas aeruginosa ATCC 15692 (PA01); assay: MIC, doubling dilution in 96-well microtitre plate; assay type: cell-based
Description: as §4

Bacillus cereus [13] = assay: MIC, doubling dilution in 96-well microtitre plate; assay type: cell-based
Description: as §4

[14] = tested on: Staphylococcus aureus (MRSA) 96-7475; assay: MIC, doubling dilution in 96-well microtitre plate; assay type: cell-based
Description: as §4

[15] = tested on: Staphylococcus aureus NCTC 6571; assay: MIC, doubling dilution in 96-well microtitre plate; assay type: cell-based
Description: as §4

[16] = tested on: Staphylococcus epidermidis NCTC 11047; assay: MIC, doubling dilution in 96-well microtitre plate; assay type: cell-based
Description: as §4

Citrobacter freundii = assay: MIC, doubling dilution in 96-well microtitre plate; assay type: cell-based
Description: as §4

Salmonella Cambridge = assay: MIC, doubling dilution in 96-well microtitre plate; assay type: cell-based
Description: as §4

[17] = tested on: Staphylococcus aureus W11 MRSA; assay: MIC, doubling dilution in 96-well microtitre plate; assay type: cell-based
Description: as §4

[18] = tested on: Streptococcus bovis NCTC 11436; assay: MIC, doubling dilution in 96-well microtitre plate; assay type: cell-based
Description: as §4

[19] = tested on: Staphylococcus aureus NCTC 10788; assay: MIC, doubling dilution in 96-well microtitre plate; assay type: cell-based
Description: as §4

[20] = tested on: Proteus mirabilis NCTC 5887; assay: MIC, doubling dilution in 96-well microtitre plate; assay type: cell-based
Description: as §4

## CC(C)(C)c1cc(/C=N/N=C(\N)c2ccncc2)c(O)c(C(C)(C)C)c1 [Compound 4PYcq]
S. aureus; 18 h, S. aureus Cowan 1
  MIC: 4 µg/mL (≈ 11.3 µM)
S. aureus; NCTC6571, 18 h, S. aureus NCTC 6571
  MIC: 4 µg/mL (≈ 11.3 µM)
S. aureus; NCTC10788, 18 h, S. aureus NCTC 10788
  MIC: 4 µg/mL (≈ 11.3 µM)
[1]
  direct MNL toxicity (in words): very toxic to leucocytes
Micrococcus roseus [2]
  MIC: 0.5 to 1 µg/mL (≈ 1.42 to 2.84 µM)
Bacillus megarerium [3]
  MIC: 0.5 to 1 µg/mL (≈ 1.42 to 2.84 µM)
Bacillus cereus [4]
  MIC: 2 to 4 µg/mL (≈ 5.67 to 11.3 µM)
Bacillus polymyxa
  MIC: 2 to 4 µg/mL (≈ 5.67 to 11.3 µM)
E. faecium; 18 h, E. faecium ACTCC 10541
  MIC: 4 µg/mL (≈ 11.3 µM)
E. faecium; NCTC7171, 18 h, E. faecium NCTC 7171
  MIC: 4 µg/mL (≈ 11.3 µM)
MRSA; 18 h, MRSA Isolate 1, upper value of MIC reading, read-out: MIC
  MIC: 4 µg/mL (≈ 11.3 µM)
MRSA; 18 h, MRSA Isolate 2, upper value of MIC reading, read-out: MIC
  MIC: 4 µg/mL (≈ 11.3 µM)
MRSA; 18 h, MRSA Isolate 3, upper value of MIC reading, read-out: MIC
  MIC: 4 µg/mL (≈ 11.3 µM)
MRSA; 18 h, MRSA Isolate 4, upper value of MIC reading, read-out: MIC
  MIC: 4 µg/mL (≈ 11.3 µM)
MRSA; 18 h, MRSA Isolate 5, upper value of MIC reading, read-out: MIC
  MIC: 4 µg/mL (≈ 11.3 µM)
MRSA; 18 h, MRSA Isolate 6, upper value of MIC reading, read-out: MIC
  MIC: 4 µg/mL (≈ 11.3 µM)
MRSA; 18 h, MRSA Isolate 7, upper value of MIC reading, read-out: MIC
  MIC: 4 µg/mL (≈ 11.3 µM)
MRSA; 18 h, MRSA Isolate 8, upper value of MIC reading, read-out: MIC
  MIC: 4 µg/mL (≈ 11.3 µM)
MRSA; 18 h, MRSA Isolate 9, upper value of MIC reading, read-out: MIC
  MIC: 4 µg/mL (≈ 11.3 µM)
MRSA; 18 h, MRSA Isolate 10, upper value of MIC reading, read-out: MIC
  MIC: 4 µg/mL (≈ 11.3 µM)
MRSA; MRSA, 18 h, panel of ten MRSA strains (clinical isolates), read-out: MRSA MIC range
  MIC: 2 to 4 µg/mL (≈ 5.67 to 11.3 µM)
MRSA; MRSA, the MRSA strains which were tested, read-out: MIC
  MIC: 2 to 4 µg/mL (≈ 5.67 to 11.3 µM)

## NC(=NN=Cc1ccc([N+](=O)[O-])o1)c1cc[n+]([O-])cc1 (mixture of isomers) [Compound 4PYOfi]
Micrococcus roseus [5]
  MIC: 8 to 16 µg/mL
[6]
  MIC: 32 to 64 µg/mL
Micrococcus luteus
  MIC: 8 to 16 µg/mL
Moraxella catarrhalis
  MIC: 16 to 32 µg/mL
Bacillus megarerium [7]
  MIC: 8 to 16 µg/mL
Salmonella arizonae
  MIC: 16 to 32 µg/mL
Bacillus subtilis
  MIC: 8 to 16 µg/mL
[8]
  MIC: 16 to 32 µg/mL
Hafnia alvei
  MIC: 32 to 64 µg/mL
Enterococcus faecium
  MIC: 8 to 16 µg/mL
Salmonella enteriditis
  MIC: 32 to 64 µg/mL
[9]
  MIC: 4 to 8 µg/mL
Salmonella banana
  MIC: 4 to 8 µg/mL
[10]
  MIC: 32 to 64 µg/mL
[11]
  MIC: 32 to 64 µg/mL
[12]
  MIC: 32 to 64 µg/mL
Bacillus cereus [13]
  MIC: 8 to 16 µg/mL
[14]
  MIC: 4 to 8 µg/mL
[15]
  MIC: 4 to 8 µg/mL
[16]
  MIC: 2 to 4 µg/mL
Citrobacter freundii
  MIC: 32 to 64 µg/mL
Salmonella Cambridge
  MIC: 16 to 32 µg/mL
[17]
  MIC: 4 to 8 µg/mL
[18]
  MIC: 4 to 8 µg/mL
[19]
  MIC: 4 to 8 µg/mL
[20]
  MIC: 32 to 64 µg/mL
